Source: ChEMBL document CHEMBL2157997, “β-D-2'-α-F-2'-β-C-Methyl-6-O-substituted 3',5'-cyclic phosphate nucleotide prodrugs as inhibitors of hepatitis C virus replication: a structure-activity relationship study” (Bioorg Med Chem Lett, 2012)

Assays:
[1] = Half life in simulated intestinal fluid; type: physicochemical
[2] = Half life in human plasma; type: ADME, cell-free
[3] = tested on: Hepatocyte; test: Prodrug activation in human primary hepatocytes assessed as assessed as Tmax of beta-D-2'-deoxy-2'-alpha-fluoro-2'-beta-C-methylguanosine triphosphate level at 100 uM; type: cell-based, Liver
[4] = Half life in rat plasma; type: ADME, cell-free
[5] = Half life in simulated gastric fluid; type: physicochemical
[6] = tested on: Huh-7; test: Prodrug activation in human HuH7 cells infected with HCV genotype 1b assessed as Tmax of beta-D-2'-deoxy-2'-alpha-fluoro-2'-beta-C-methylguanosine triphosphate level at 100 uM; type: cell-based; details: huh-7, 100 µM
[7] = Half life in human liver S9 fraction; type: ADME, subcellular
[8] = tested on: Hepatitis C virus; test: Antiviral activity against Hepatitis C virus genotype 1b replicon infected in clone A cells assessed as inhibition of viral replication by RT-PCR analysis; type: functional, Hepacivirus hominis
[9] = Cytotoxicity against human HuH7 cells; type: cell-based; details: Huh-7 cells
[10] = tested on: Hepatitis C virus; test: Antiviral activity against Hepatitis C virus genotype 1b replicon infected in Lunet cells by luciferase reporter gene assay; type: functional, Hepacivirus hominis
[11] = Cmax in rat at 40 mg/kg, po administered QD measured after 1 day; type: ADME, organism-based; parameters: dose 40 mg/kg, route oral; details: in vivo
[12] = tested on: Hepatitis C virus; test: Antiviral activity against Hepatitis C virus expressing NS5B S282T mutant by cell-based replicon assay; type: functional, Hepacivirus hominis
[13] = tested on: Rattus norvegicus; test: Prodrug activation in rat liver assessed as beta-D-2'-deoxy-2'-alpha-fluoro-2'-beta-C-methylguanosine diphosphate level at 40 mg/kg, po administered QD as repeated dose measured at 4 hrs post-dosing on day 8; type: organism-based; parameters: dose 40 mg/kg, route oral; details: in vivo
[14] = Half life in rat at 40 mg/kg, po administered QD measured after 7 days; type: ADME, organism-based; parameters: dose 40 mg/kg, route oral; details: in vivo
[15] = tested on: HepG2; test: Mitochondrial toxicity against human HepG2 cells assessed as decrease in mitochondrial COX2 DNA up to 100 uM after 14 days by RT-PCR analysis; type: cell-based; details: hepg2, 336 h
[16] = Cmax in rat at 40 mg/kg, po administered QD measured after 7 days; type: ADME, organism-based; parameters: dose 40 mg/kg, route oral; details: in vivo
[17] = tested on: Rattus norvegicus; test: Prodrug activation in rat liver assessed as beta-D-2'-deoxy-2'-alpha-fluoro-2'-beta-C-methylguanosine monophosphate level at 40 mg/kg, po administered QD as repeated dose measured at 4 hrs post-dosing on day 8; type: organism-based; parameters: dose 40 mg/kg, route oral; details: in vivo
[18] = tested on: Rattus norvegicus; test: Tlast in rat at 40 mg/kg, po administered QD measured after 1 day; type: ADME, organism-based; parameters: dose 40 mg/kg, route oral; details: in vivo, 24 h
[19] = AUC (infinity) in rat at 40 mg/kg, po administered QD measured after 1 day; type: ADME, organism-based; parameters: time infinity, dose 40 mg/kg, route oral; details: plasma
[20] = AUC (infinity) in rat at 40 mg/kg, po administered QD measured after 7 days; type: ADME, organism-based; parameters: time infinity, dose 40 mg/kg, route oral; details: plasma
[21] = tested on: Rattus norvegicus; test: Prodrug activation in rat liver assessed as total nucleotide level at 40 mg/kg, po administered QD as repeated dose measured at 4 hrs post-dosing on day 8; type: organism-based; parameters: dose 40 mg/kg, route oral; details: in vivo
[22] = Tmax in rat at 40 mg/kg, po administered QD measured after 7 days; type: ADME, organism-based; parameters: dose 40 mg/kg, route oral; details: in vivo
[23] = tested on: BXPC-3; test: Cytotoxicity against human BxPC3 cells up to 100 uM after 8 days by MTT assay; type: cell-based; details: bxpc-3, 192 h
[24] = Half life in rat at 40 mg/kg, po administered QD measured after 1 day; type: ADME, organism-based; parameters: dose 40 mg/kg, route oral; details: in vivo
[25] = tested on: CCRF-CEM; test: Mitochondrial toxicity against human CEM cells assessed as decrease in ribosomal DNA up to 100 uM after 14 days by RT-PCR analysis; type: cell-based; details: 336 h
[26] = AUClast in rat at 40 mg/kg, po administered QD measured after 7 days; type: ADME, organism-based; parameters: dose 40 mg/kg, route oral; details: plasma
[27] = AUClast in rat at 40 mg/kg, po administered QD measured after 1 day; type: ADME, organism-based; parameters: dose 40 mg/kg, route oral; details: plasma
[28] = tested on: Rattus norvegicus; test: Prodrug activation in rat liver assessed as free nucleoside level at 40 mg/kg, po administered QD as repeated dose measured at 4 hrs post-dosing on day 8; type: organism-based; parameters: dose 40 mg/kg, route oral; details: in vivo
[29] = tested on: Rattus norvegicus; test: Tlast in rat at 40 mg/kg, po administered QD measured after 7 days; type: ADME, organism-based; parameters: dose 40 mg/kg, route oral; details: in vivo, 168 h
[30] = tested on: Huh-7; test: Cytotoxicity against human HuH7 cells up to 100 uM after 8 days by MTT assay; type: cell-based; details: huh-7, 192 h
[31] = tested on: CCRF-CEM; test: Cytotoxicity against human CEM cells up to 100 uM after 8 days by MTT assay; type: cell-based; details: 192 h
[32] = tested on: CCRF-CEM; test: Mitochondrial toxicity against human CEM cells assessed as decrease in mitochondrial COX2 DNA up to 100 uM after 14 days by RT-PCR analysis; type: cell-based; details: 336 h
[33] = Tmax in rat at 40 mg/kg, po administered QD measured after 1 day; type: ADME, organism-based; parameters: dose 40 mg/kg, route oral; details: in vivo
[34] = tested on: Rattus norvegicus; test: Prodrug conversion in rat liver assessed as beta-D-2'-deoxy-2'-alpha-fluoro-2'-beta-C-methylguanosine triphosphate level at 40 mg/kg, po administered QD as repeated dose measured at 4 hrs post-dosing on day 8; type: ADME, organism-based; parameters: dose 40 mg/kg, route oral; details: in vivo
[35] = tested on: HepG2; test: Cytotoxicity against human HepG2 cells up to 100 uM after 8 days by MTT assay; type: cell-based; details: hepg2, 192 h
[36] = tested on: HepG2; test: Mitochondrial toxicity against human HepG2 cells assessed as decrease in ribosomal DNA up to 100 uM after 14 days by RT-PCR analysis; type: cell-based; details: hepg2, 336 h

## COc1nc(N)nc2c1ncn2[C@@H]1O[C@H](COP(=O)(N[C@@H](C)C(=O)OC(C)C)Oc2ccccc2)[C@@H](O)[C@@]1(C)F (stereo partly specified)
[1]
  half-life: > 20 h
[2]
  half-life: > 24 h
[3]
  Tmax: 8 h
[4]
  half-life: < 0.02 h
[5]
  half-life: 16 h
[6]
  Tmax: 24 h
[7]
  half-life: 0.44 h

## COc1nc(N)nc2c1ncn2[C@@H]1O[C@@H]2COP(=O)(OC(C)C)O[C@H]2[C@@]1(C)F (stereo partly specified)
[1]
  half-life: > 20 h
[2]
  half-life: > 24 h
[4]
  half-life: 5.6 h
[8]
  EC90: 680 nM
[5]
  half-life: > 20 h
[9]
  CC90: > 100000 nM
[7]
  half-life: > 24 h
[10]
  EC90: 25.8 nM

## CCOP1(=O)OC[C@H]2O[C@@H](n3cnc4c(OC)nc(N)nc43)[C@](C)(F)[C@@H]2O1 (stereo partly specified)
[9]
  CC90: > 10000 nM
[10]
  EC90: 35.8 nM

## COc1nc(N)nc2c1ncn2[C@@H]1O[C@@H]2COP(=O)(OCc3ccccc3)O[C@H]2[C@@]1(C)F (stereo partly specified)
[9]
  CC90: > 10000 nM
[10]
  EC90: 70 nM

## COc1nc(N)nc2c1ncn2[C@@H]1O[C@@H]2COP(=O)(O)O[C@H]2[C@@]1(C)F
[9]
  CC90: > 100000 nM
[10]
  EC90: 180 nM

## CC(C)Oc1nc(N)nc2c1ncn2[C@@H]1O[C@@H]2COP(=O)(OC3CCCC3)O[C@H]2[C@@]1(C)F (stereo partly specified)
[11]
  Cmax: 80 ng/mL
[12]
  EC90: 23 nM
[1]
  half-life: 15 h
[13]
  Drug metabolism: 17.61 nmol/g
[14]
  half-life: 3.32 h
[2]
  half-life: > 23.4 h
[15]
  Activity: Non-toxic
[16]
  Cmax: 50 ng/mL
[17]
  Drug metabolism: 20.85 nmol/g
[18]
  Tlast: 10.7 h
[19]
  AUC(0-inf): 770 ng·h/mL
[20]
  AUC(0-inf): 210 ng·h/mL
[21]
  Drug metabolism: 40.5 nmol/g
[3]
  Tmax: 24 h
[22]
  Tmax: 2.33 h
[4]
  half-life: > 24 h
[23]
  Activity: Non-toxic
[24]
  half-life: 2.83 h
[8]
  EC90: 184 nM
[5]
  half-life: 9 h
[9]
  CC90: > 100000 nM
[25]
  Activity: Non-toxic
[6]
  Tmax: 72 h
[26]
  AUC(0-t) at 168 h: 170 ng·h/mL
[27]
  AUC(0-t) at 24 h: 340 ng·h/mL
[28]
  Drug metabolism: 7.47 nmol/g
[29]
  Tlast: 8 h
[30]
  Activity: Non-toxic
[7]
  half-life: > 24 h
[31]
  Activity: Non-toxic
[32]
  Activity: Non-toxic
[10]
  EC90: 60 nM
[33]
  Tmax: 3.67 h
[34]
  Drug metabolism: 2.02 nmol/g
[35]
  Activity: Non-toxic
[36]
  Activity: Non-toxic

## CC(C)Oc1nc(N)nc2c1ncn2[C@@H]1O[C@@H]2COP(=O)(OC3CCC3)O[C@H]2[C@@]1(C)F (stereo partly specified)
[1]
  half-life: 4.2 h
[2]
  half-life: 11.7 h
[4]
  half-life: 8.6 h
[8]
  EC90: 224 nM
[5]
  half-life: 2.6 h
[9]
  CC90: > 100000 nM
[7]
  half-life: 6.3 h
[10]
  EC90: 50 nM

## CC(C)Oc1nc(N)nc2c1ncn2[C@@H]1O[C@@H]2COP(=O)(OC3CCCCC3)O[C@H]2[C@@]1(C)F (stereo partly specified)
[10]
  EC90: 300 nM
